# Target: T1, recombinant human glucokinase (beta cell isoform) (Homo sapiens, UniProt P35557)
# T1 construct: Full-length glucokinase (beta cell isoform) was His-tagged at the N-terminus; His tag (N); made in house; host or cells: E. coli BL21(DE3), vector pBCGK
# T1 sequence (P35557 1-465): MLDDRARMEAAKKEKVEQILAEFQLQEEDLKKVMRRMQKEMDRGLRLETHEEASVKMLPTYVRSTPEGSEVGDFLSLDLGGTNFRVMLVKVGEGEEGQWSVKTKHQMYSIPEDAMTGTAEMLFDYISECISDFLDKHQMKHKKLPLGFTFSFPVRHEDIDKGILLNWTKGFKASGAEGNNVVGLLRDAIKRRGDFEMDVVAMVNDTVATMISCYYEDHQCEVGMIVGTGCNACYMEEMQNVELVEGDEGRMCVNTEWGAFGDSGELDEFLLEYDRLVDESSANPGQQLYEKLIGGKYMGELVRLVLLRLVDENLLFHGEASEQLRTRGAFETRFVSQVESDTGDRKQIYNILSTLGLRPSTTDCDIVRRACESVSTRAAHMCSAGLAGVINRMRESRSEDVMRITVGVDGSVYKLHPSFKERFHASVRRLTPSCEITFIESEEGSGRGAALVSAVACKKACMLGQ
# Experiment: Assay 1: Evaluating Activator Potency and Maximum Activation at 5 mM Glucose
# Format: biochemical
# Settings: not given
# Method: Representative compounds of this invention were evaluated in biochemical assays (Assay 1 or Assay 2) to characterize their glucokinase activation properties.
# The recombinant human glucokinase protein utilized in both assays was prepared and purified as described below.
# BL21(DE3) cells (Invitrogen Corporation, Carlsbad, Calif.) containing pBCGK (C or N H is) vector were grown at 37° C. (in 2XYT) until the OD600 was between 0.6-1.0. Expression was induced by addition of isopropylthiogalactoside to a final concentration of 0.1-0.2 mM to the cells which were then incubated overnight at 23° C. The next day, cells were harvested via centrifugation at 5000 rpm for 15 minutes at 4° C. The cell pellet was stored at −80° C. for future purification.
# Beta Cell Glucokinase His-Taq Purification Conditions: A Ni-NTA (Quigan, Germantown, Md.) column (15-50 mL) was used for separation. Two buffers were prepared, 1) a lysis/nickel equilibration and wash buffer and 2) a nickel elution buffer. The lysis/equilibration/wash buffer was prepared as such: 25 mM HEPES buffer at pH 7.5, 250 mM NaCl, 20 mM imidazole, and 14 mM β-mercaptoethanol as final concentrations. The elution buffer was prepared as such: 25 mM HEPES at pH 7.5, 250 mM NaCl, 400 mM imidazole, and 14 mM β-mercaptoethanol as final concentrations. The buffers were each filtered with a 0.22 μm filter prior to use. The cell pellet (1 L culture) was resuspended in 300 mL of the lysis/equilibration buffer. The cells were then lysed (3 times) with a Microfluidics Model 110Y microfluidizer (Microfluidics Corporation, Newton, Mass.). The slurry was centrifuged with a Beckman Coulter Model LE-80K ultracentrifuge (Beckman Coulter, Fullerton, Calif.) at 40,000 rpm for 45 minutes at 4° C. The supernatant was transferred to a chilled flask. A volume of 20 μl was saved for gel analysis. A Pharmacia AKTA (GMI, Inc., Ramsey, Minn.) purification system was used for separation. The prime lines were purged with lysis/equilibration buffer. The Ni-NTA column was equilibrated with 200 mL of the lysis/equilibration buffer at a flow rate of 5 mL/minute. The supernantant was loaded over the column at 4 mL/minute and the flow-through was collected in a flask. The unbound proteins were washed with lysis/equilibration buffer at a flow rate of 5 mL/minute until the ultraviolet reaches baseline. The protein was then eluted from the column with the imidazole elution buffer via imidazole gradient 20 mM to 400 mM over 320 mL. The column was then stripped of any additional protein with 80 mL of the elution buffer. The elution fractions were each 8 mL, for a total yield of 50 samples. Fractions were analyzed by sodium dodecyl sulfate polyacrylamide (SDS-PAGE) and the fractions containing protein of interest were pooled and concentrated to 10 mL using ultrafiltration cell with a 10,000 molecular weight cut-off (MWCO) Millipore membrane (Sigma-Aldrich, St. Louis, Mo.) under nitrogen gas (60 psi). Protein was further purified by size exclusion chromatography (SEC) using a […] (320 mL) (Amersham Pharmacia, Uppsala, Sweden). SEC was equilibrated with 450 mL sizing buffer containing 25 mM HEPES pH 7.0, 50 mM NaCl, and 5 mM dithiothreitol. Concentrated protein was then loaded over SEC and elution with 400 mL sizing buffer was performed overnight at 0.5 mL/minute. The elution fractions were 5 mL each. The fractions were analyzed by SDS-PAGE and protein containing fractions were pooled. Concentration was measured using Bradford Assay/BSA Standard. Purified protein was stored in small aliquots at −80° C.
# Assay 1: Evaluating Activator Potency and Maximum Activation at 5 mM Glucose
# Full-length glucokinase (beta cell isoform) was His-tagged at the N-terminus and purified by a Ni column followed by size exclusion chromatography as described above. Glucose was obtained from Calbiochem (San Diego, Calif.) and other reagents were purchased from Sigma-Aldrich (St. Louis, Mo.).
row,EC50,SMILES
1,1.63 µM,"Cc1cnc(NC(=O)c2cc(Oc3cnc(C(=O)N(C)C)c(F)c3)c3cn(C)nc3c2)cn1 [Example 1AC, 4-{[6-(dimethylcarbamoyl)-5-fluoropyridin-3-yl]oxy}-2-methyl-N-(5-methylpyrazin-2-yl)-2H-indazole-6-carboxamide]"

# Same assay, conditions: Assay 1; 5 mM glucose; NADH depletion at 340 nm, PK/LDH coupled; read-out: Glucokinase EC50
row,SMILES,EC50
1,"CN(C)C(=O)c1ncc(Oc2cc(C(=O)Nc3ccc(Cl)cn3)cc3nn(C)cc23)cn1 [Example 1AA, N-(5-chloropyridin-2-yl)-4-(2-(dimethylcarbamoyl)pyrimidin-5-yloxy)-2-methyl-2H-indazole-6-carboxamide]",0.863 µM
2,"CN(C)C(=O)c1ncc(Oc2cc(C(=O)Nc3ccc(C(F)(F)F)cn3)cc3nn(C)cc23)cn1 [Example 1AB, 4-(2-(dimethylcarbamoyl)pyrimidin-5-yloxy)-2-methyl-N-(5-(trifluoromethyl)-pyridin-2-yl)-2H-indazole-6-carboxamide]",1.04 µM
3,"CCn1cc2c(Oc3cnc(C(=O)N(C)C)c(F)c3)cc(C(=O)Nc3cnc(C)cn3)cc2n1 [Example 1AE, 4-(6-(dimethylcarbamoyl)-5-fluoropyridin-3-yloxy)-2-ethyl-N-(5-methylpyrazin-2-yl)-2H-indazole-6-carboxamide]",0.569 µM
4,"Cn1cc2c(Oc3cnc(C(=O)N4CCCC4)cn3)cc(C(=O)Nc3cnccn3)cc2n1 [Example 1B, 2-methyl-N-pyrazin-2-yl-4-{[5-(pyrrolidin-1-ylcarbonyl)pyrazin-2-yl]oxy}-2H-indazole-6-carboxamide]",0.96 µM
5,"CN(C)C(=O)c1cnc(Oc2cc(C(=O)Nc3cnccn3)cc3nn(C)cc23)cn1 [Example 1E, 4-{[5-(dimethylcarbamoyl)pyrazin-2-yl]oxy}-2-methyl-N-pyrazin-2-yl-2H-indazole-6-carboxamide]",4.31 µM
6,"Cc1cnc(NC(=O)c2cc(Oc3cnc(C(=O)N(C)C)cn3)c3cn(C)nc3c2)cn1 [Example 1F, 4-{[5-(dimethylcarbamoyl)pyrazin-2-yl]oxy}-2-methyl-N-(5-methylpyrazin-2-yl)-2H-indazole-6-carboxamide]",2.49 µM
7,"Cc1ccc(NC(=O)c2cc(Oc3cnc(C(=O)N(C)C)cn3)c3cn(C)nc3c2)nc1 [Example 1G, 4-{[5-(dimethylcarbamoyl)pyrazin-2-yl]oxy}-2-methyl-N-(5-methylpyridin-2-yl)-2H-indazole-6-carboxamide]",1.55 µM
8,"COc1cnc(NC(=O)c2cc(Oc3cnc(C(=O)N(C)C)cn3)c3cn(C)nc3c2)cn1 [Example 1H, 4-{[5-(dimethylcarbamoyl)pyrazin-2-yl]oxy}-N-(5-methoxypyrazin-2-yl)-2-methyl-2H-indazole-6-carboxamide]",2.77 µM
9,"Cn1ccc(NC(=O)c2cc(Oc3cnc(C(F)(F)F)cn3)c3cn(C)nc3c2)n1 [Example 1J, 2-methyl-N-(1-methyl-1H-pyrazol-3-yl)-4-{[5-(trifluoromethyl)pyrazin-2-yl]oxy}-2H-indazole-6-carboxamide]",22.4 µM
10,"Cn1cc2c(Oc3cnc(C(F)(F)F)cn3)cc(C(=O)Nc3cnn(C)n3)cc2n1 [Example 1K, 2-methyl-N-(2-methyl-2H-1,2,3-triazol-4-yl)-4-{[5-(trifluoromethyl)pyrazin-2-yl]oxy}-2H-indazole-6-carboxamide]",16.1 µM
11,"Cc1cnc(NC(=O)c2cc(Oc3ccc(S(C)(=O)=O)cc3)c3cn(C)nc3c2)cn1 [Example 1L, 2-methyl-N-(5-methylpyrazin-2-yl)-4-[4-(methylsulfonyl)phenoxy]-2H-indazole-6-carboxamide]",7.81 µM
12,"Cc1ccc(NC(=O)c2cc(Oc3ccc(S(C)(=O)=O)cc3)c3cn(C)nc3c2)nc1 [Example 1M, 2-methyl-N-(5-methylpyridin-2-yl)-4-[4-(methylsulfonyl)phenoxy]-2H-indazole-6-carboxamide]",2.66 µM
13,"CCn1cc2c(Oc3cnc(C(=O)N(C)C)cn3)cc(C(=O)Nc3ccc(C)cn3)cc2n1 [Example 1O, 4-{[5-(dimethylcarbamoyl)pyrazin-2-yl]oxy}-2-ethyl-N-(5-methylpyridin-2-yl)-2H-indazole-6-carboxamide]",0.776 µM
14,"CCn1cc2c(Oc3cnc(C(=O)N(C)C)cn3)cc(C(=O)Nc3cnc(C)cn3)cc2n1 [Example 1P, 4-{[5-(dimethylcarbamoyl)pyrazin-2-yl]oxy}-2-ethyl-N-(5-methylpyrazin-2-yl)-2H-indazole-6-carboxamide]",2.73 µM
15,"CCn1cc2c(Oc3ccc(S(C)(=O)=O)cc3)cc(C(=O)Nc3ccc(C)cn3)cc2n1 [Example 1R, 2-ethyl-N-(5-methylpyridin-2-yl)-4-[4-(methylsulfonyl)phenoxy]-2H-indazole-6-carboxamide]",1.41 µM

# Results, then the compound that gave them:
row,EC50,SMILES
1,0.293 µM,"Cc1ccc(NC(=O)c2cc(Oc3cnc(C(=O)N4CCCC4)cn3)c3cn(C)nc3c2)nc1 [Example 1A, 2-methyl-N-(5-methylpyridin-2-yl)-4-(5-(pyrrolidine-1-carbonyl)pyrazin-2-yloxy)-2H-indazole-6-carboxamide]"
2,0.463 µM,"CCn1cc2c(Oc3ccc(S(=O)(=O)CC)cc3)cc(C(=O)Nc3ccc(C)cn3)cc2n1 [Example 1AD, 2-ethyl-4-[4-(ethylsulfonyl)phenoxy]-N-(5-methylpyridin-2-yl)-2H-indazole-6-carboxamide]"
3,1.49 µM,"Cc1ccc(NC(=O)c2cc(Oc3ccc(C(=O)N4CCCC4)c(F)c3)c3cn(C)nc3c2)nc1 [Example 1C, 4-[3-fluoro-4-(pyrrolidin-1-ylcarbonyl)-phenoxy]-2-methyl-N-(5-methylpyridin-2-yl)-2H-indazole-6-carboxamide]"
4,0.735 µM,"Cn1cc2c(Oc3ccc(C(=O)N4CCCC4)c(F)c3)cc(C(=O)Nc3cnccn3)cc2n1 [Example 1D, 4-[3-fluoro-4-(pyrrolidin-1-ylcarbonyl)-phenoxy]-2-methyl-N-pyrazin-2-yl-2H-indazole-6-carboxamide]"
5,19.4 µM,"Cc1cnc(NC(=O)c2cc(Oc3cnc(C(F)(F)F)cn3)c3cn(C)nc3c2)cn1 [Example 1I, 2-methyl-N-(5-methylpyrazin-2-yl)-4-{[5-(trifluoromethyl)pyrazin-2-yl]oxy}-2H-indazole-6-carboxamide]"
6,8.54 µM,"Cn1ccc(NC(=O)c2cc(Oc3ccc(S(C)(=O)=O)cc3)c3cn(C)nc3c2)n1 [Example 1N, 2-methyl-N-(1-methyl-1H-pyrazol-3-yl)-4-[4-(methylsulfonyl)phenoxy]-2H-indazole-6-carboxamide]"
7,2.42 µM,"CCn1cc2c(Oc3ccc(S(C)(=O)=O)cc3)cc(C(=O)Nc3ccccn3)cc2n1 [Example 1Q, 2-ethyl-4-[4-(methylsulfonyl)phenoxy]-N-pyridin-2-yl-2H-indazole-6-carboxamide]"
8,1.34 µM,"CCS(=O)(=O)c1ccc(Oc2cc(C(=O)Nc3ccccn3)cc3nn(C)cc23)cc1 [Example 1S, 4-[4-(ethylsulfonyl)phenoxy]-2-methyl-N-pyridin-2-yl-2H-indazole-6-carboxamide]"
